Source: the supplement of paper PMC10307832

Columns and labels:
Test in all cases: relative viability (nuclei count vs DMSO), 5 days (fraction); higher = more cells survive
[1] = compound: C(C(=O)C(=O)O)Br [Bromopyruvate] + COc1cc2c(Oc3ccc(NC(=O)C4(C(=O)Nc5ccc(F)cc5)CC4)cc3F)ccnc2cc1OCCCN1CCOCC1 [Foretinib] (partner 0.25 µM)
Procedure, shortened: (§1)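 Lung cancer cell lines, seeded in 1536-well plates, were treated the following day by pin tool with a single drug or with five library-drug doses (not always all listed) in √10 steps on top of a fixed anchor-drug dose. Cells were fixed and nuclei stained in one step after 5 days, and nuclei were counted. Relative viability is the nuclei count for treated wells divided by that for vehicle wells, reported as medians of duplicate plates.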

[2] = compound: CC(O)(CS(=O)(=O)c1ccc(F)cc1)C(=O)Nc1ccc(C#N)c(C(F)(F)F)c1 [Bicalutamide] + CS(=O)(=O)N1CCN(Cc2cc3nc(-c4cccc5[nH]ncc45)nc(N4CCOCC4)c3s2)CC1 [Pictilisib] (partner 1 µM)
Procedure, shortened: as §1

[3] = compound: C(C(=O)C(=O)O)Br [Bromopyruvate] + C[C@@H](Oc1cc(-c2cnn(C3CCNCC3)c2)cnc1N)c1c(Cl)ccc(F)c1Cl [Crizotinib] (partner 1 µM)
Procedure, shortened: as §1

[4] = compound: C(C(=O)C(=O)O)Br [Bromopyruvate] + C[C@]1(O)C[C@@H](c2nc(-c3ccc4ccc(-c5ccccc5)nc4c3)c3c(N)nccn32)C1 [Linsitinib] (partner 1 µM)
Procedure, shortened: as §1

Cell Line	relative viability ([1]; first compound 1 µM)	relative viability ([1]; first compound 3.162 µM)	relative viability ([1]; first compound 10 µM)	relative viability ([1]; first compound 31.62 µM)	relative viability ([1]; first compound 100 µM)	relative viability ([2]; first compound 0.08 µM)	relative viability ([2]; first compound 0.253 µM)	relative viability ([2]; first compound 0.8 µM)	relative viability ([2]; first compound 2.53 µM)	relative viability ([3]; first compound 1 µM)	relative viability ([3]; first compound 3.162 µM)	relative viability ([3]; first compound 10 µM)	relative viability ([3]; first compound 31.62 µM)	relative viability ([3]; first compound 100 µM)	relative viability ([4]; first compound 1 µM)	relative viability ([4]; first compound 3.162 µM)	relative viability ([4]; first compound 10 µM)	relative viability ([4]; first compound 31.62 µM)	relative viability ([4]; first compound 100 µM)
NCI-H1437	1.26	1.28	1.27	1.28	1.25	0.475	0.381	0.419	0.451	0.923	0.981	0.914	0.938	0.92	1.02	1.03	1.22	1.02	1.17
NCI-H661	1.02	1.02	1.05	1.02	0.994	0.433	–	0.494	0.407	1.05	0.897	0.854	1.12	1.11	0.556	0.631	0.591	0.727	0.676
COR-L23	0.905	0.914	1.02	0.971	0.434	0.896	0.724	0.945	0.765	0.564	0.597	0.717	0.713	0.336	0.906	0.843	1	0.889	0.451
COR-L 105	0.924	1.18	0.995	1.08	0.616	0.372	0.324	0.394	0.303	0.716	1.09	0.739	0.583	0.439	0.943	0.898	0.838	0.736	0.702
